Results on 38 compounds are retold here after patent publication US8604190B2, “Hetero isonipecotic modulators of vanilloid VR1 receptor” (Janssen Pharmaceutica NV, priority 2004, dated 2013).

For this assay, the target named is T1, human VR1 (Homo sapiens, UniProt Q8NER1).
T1 construct: expressed in transfected cells; host or cells: A431 cells
T1 sequence (Q8NER1 whole entry): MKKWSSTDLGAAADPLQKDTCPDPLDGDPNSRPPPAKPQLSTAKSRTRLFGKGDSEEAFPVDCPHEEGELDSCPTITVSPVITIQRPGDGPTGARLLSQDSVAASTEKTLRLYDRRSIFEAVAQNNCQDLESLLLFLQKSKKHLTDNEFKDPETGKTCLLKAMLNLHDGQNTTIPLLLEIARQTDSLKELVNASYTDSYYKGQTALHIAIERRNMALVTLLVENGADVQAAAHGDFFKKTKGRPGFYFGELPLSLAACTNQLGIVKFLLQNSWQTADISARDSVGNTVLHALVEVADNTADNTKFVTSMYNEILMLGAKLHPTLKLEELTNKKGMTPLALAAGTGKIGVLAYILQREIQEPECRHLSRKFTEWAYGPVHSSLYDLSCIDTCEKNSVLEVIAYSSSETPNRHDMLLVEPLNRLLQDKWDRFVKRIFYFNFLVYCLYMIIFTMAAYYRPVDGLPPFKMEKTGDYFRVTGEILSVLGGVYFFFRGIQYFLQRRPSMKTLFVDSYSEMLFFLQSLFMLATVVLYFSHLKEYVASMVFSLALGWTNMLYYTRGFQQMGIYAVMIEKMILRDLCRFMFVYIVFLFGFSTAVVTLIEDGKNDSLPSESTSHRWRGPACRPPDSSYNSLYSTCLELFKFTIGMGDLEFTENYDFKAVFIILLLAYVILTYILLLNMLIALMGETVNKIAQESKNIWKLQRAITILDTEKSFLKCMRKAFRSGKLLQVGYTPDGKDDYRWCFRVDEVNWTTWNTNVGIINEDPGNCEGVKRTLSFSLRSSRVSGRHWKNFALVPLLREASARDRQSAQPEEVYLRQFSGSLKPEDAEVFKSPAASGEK
The experiment in a line: Human VR1 functional assay (FLIPR, intracellular Ca++). As to conditions: A431 cells expressing human VR1, Ca++-sensitive dye, dose-response. The format is cell-based. As to the method:
The compounds of the invention were tested using a high throughput VR-1 FLIPR assay.
Human VR1 Functional Assay
The functional activity of the test compounds was determined by measuring changes in intracellular calcium concentration using a Ca^++-sensitive fluorescent dye and FLIPR™ technology. Increases in Ca^++ concentration were readily detected upon challenge with resiniferatoxin (RTX). A431 cells expressing human VR1 were seeded on polystyrene 384-well back walled clear bottom assay plates coated with collagen and incubated for 3-4 hours at 37° C. with 5% CO2 in DMEM. Plates were loaded with […] of 2× Dye Solution, incubated for 1-1.5 hours and subsequently tested for agonist-induced increases in intracellular Ca^2+ levels using FLIPR™ technology. Cells were challenged with test compounds (at varying concentrations) and intracellular Ca^++ was measured prior to the addition of resiniferatoxin to all wells to elicit ˜80% maximal response. EC50 or IC50 values were determined from dose-response studies.
For the compound `Cc1cccc(N2CCC(C(=O)N3CCCCC3)CC2)c1` [Compound 29], the EC50 is 3800 nM. To `O=C(C1CCN(c2cccc(-c3ccccc3)c2)CC1)N1CCCCC1` [Compound 33] belongs 4100 nM. To `COc1cccc(N2CCC(C(=O)N3CCSCC3)CC2)c1` [Compound 34] belongs 4370 nM; to `Cc1ccccc1N1CCC(C(=O)N2CCC(O)CC2)CC1` [Compound 11], 1420 nM; to `Cc1ccc(N2CCC(C(=O)N3CCC(O)CC3)CC2)cc1F` [Compound 22], 2300 nM. The value for `O=C(C1CCN(c2cccc(-c3ccccc3)c2)CC1)N1CCSCC1` [Compound 21] was 2200 nM; that for `Cc1cccc(N2CCC(C(=O)N3CCC(O)C3)CC2)c1C` (centres unmarked) [Compound 36] was 5200 nM. Compound `Cc1ccccc1N1CCC(C(=O)N2CCSC2)CC1` [Compound 37] yielded an EC50 of 5400 nM. To `O=C(C1CCN(c2cccc(C(F)(F)F)c2)CC1)N1CCOCC1` [Compound 5, [1-(3-Trifluoromethyl-phenyl)-piperidin-4-yl]-morpholin-4-yl-methanone] belongs 330 nM. As to `Cc1ccc(N2CCC(C(=O)N3CCCCC3)CC2)cc1F` [Compound 10], the response was half-maximal at 1300 nM (EC50). To `Cc1ccccc1N1CCC(C(=O)N2CCSCC2)CC1` [Compound 1, (1-o-Tolyl-piperidin-4-yl)-thiomorpholin-4-yl-methanone] belongs 230 nM; to `Cc1ccc(N2CCC(C(=O)N3CCOCC3)CC2)cc1F` [Compound 19], 2000 nM; to `Cc1cccc(N2CCC(C(=O)N3CCOCC3)CC2)c1` [Compound 32], 4100 nM.

Compound `O=C(C1CCN(c2cc(F)cc(F)c2)CC1)N1CCSCC1` [Compound 18] registered an EC50 of 1970 nM.

On to `O=C(C1CCN(c2cccc(C(F)(F)F)c2)CC1)N1CCCCC1` [Compound 28], for which the EC50 was found to be 3700 nM. As for `Cc1ccc(N2CCC(C(=O)N3CCSCC3)CC2)cc1C` [Compound 6, [1-(3,4-Dimethyl-phenyl)-piperidin-4-yl]-thiomorpholin-4-yl-methanone], the EC50 amounted to 340 nM. Compound `Cc1cccc(N2CCC(C(=O)N3C(C)CCCC3C)CC2)c1C` (centres unmarked) [Compound 35] returned an EC50 of 4600 nM.

Consider `Cc1ccc(N2CCC(C(=O)N3CCCCC3)CC2)cc1C` [Compound 9], for which the EC50 came out at 1040 nM.

As to `Cc1ccccc1N1CCC(C(=O)N2CCCC2)CC1` [Compound 38], the half-maximal effective concentration (EC50) turned out to be 7840 nM.

`CC(=O)N1CCN(C(=O)C2CCN(c3cccc(C)c3C)CC2)CC1` [Compound 31] yielded an EC50 of 4000 nM. To `Cc1cccc(N2CCC(C(=O)N3CCSC3)CC2)c1C` [Compound 16] belongs 1890 nM; to `Cc1cccc(N2CCC(C(=O)N3CCSCC3)CC2)c1C` [Compound 7], 760 nM; to `O=C(C1CCN(c2cc(F)cc(F)c2)CC1)N1CCOCC1` [Compound 15], 1850 nM. In the case of `Cc1ccccc1N1CCC(C(=O)N2CCOCC2)CC1` [Compound 13], the EC50 stood at 1590 nM. Turning to `COc1cccc(N2CCC(C(=O)N3CCOCC3)CC2)c1` [Compound 27], the EC50 stood at 3530 nM. Take `Cc1cccc(N2CCC(C(=O)N3CCCCC3)CC2)c1C` [Compound 14]: the concentration for a half-maximal effect (EC50) amounted to 1640 nM. The value for `CC(=O)N1CCN(C(=O)C2CCN(c3cccc(-c4ccccc4)c3)CC2)CC1` [Compound 30] was 3800 nM.

In turn, `Cc1ccc(N2CCC(C(=O)N3CCSCC3)CC2)cc1F` [Compound 4, [1-(3-Fluoro-4-methyl-phenyl)-piperidin-4-yl]-thiomorpholin-4-yl-methanone] yielded an EC50 of 270 nM. To `Cc1ccccc1N1CCC(C(=O)N2CCCCCC2)CC1` [Compound 25] belongs 3200 nM; to `O=C(C1CCN(c2cc(F)cc(F)c2)CC1)N1CCCCC1` [Compound 20], 2050 nM. To `Cc1ccc(N2CCC(C(=O)N3CCOCC3)CC2)cc1C` [Compound 12] belongs 1500 nM; to `O=C(C1CCN(c2cccc3ccccc23)CC1)N1CCCCC1` [Compound 17], 1910 nM; to `Cc1ccc(N2CCC(C(=O)N3CCC(O)CC3)CC2)cc1C` [Compound 8], 910 nM. The value for `O=C(C1CCN(c2cc(F)cc(F)c2)CC1)N1CCC(O)CC1` [Compound 23] was 2800 nM; that for `Cc1ccccc1N1CCC(C(=O)N2CCCCC2)CC1` [Compound 26] was 3260 nM. Regarding `O=C(C1CCN(c2cccc3ccccc23)CC1)N1CCSC1` [Compound 24], the EC50 is 3100 nM. The value for `O=C(C1CCN(c2cccc(-c3ccccc3)c2)CC1)N1CCOCC1` [Compound 3, (1-Biphenyl-3-yl-piperidin-4-yl)-morpholin-4-yl-methanone] was 270 nM; that for `Cc1cccc(N2CCC(C(=O)N3CCC(O)CC3)CC2)c1C` [Compound 2, [1-(2,3-Dimethyl-phenyl)-piperidin-4-yl]-(4-hydroxy-piperidin-1-yl)-methanone] was 240 nM.

Broadly, the EC50 is the concentration at which the effect is half-maximal. Low values mean higher potency in that assay, high ones lower potency in that assay.
